Experimental data taken from patent US20190076507A1, “Artificial Red Blood Cell Having Ability to Inhibit Conversion of Hemoglobin into Methemoglobin” (Public University Corporation Nara Medical University, priority 2016, published 2019).

Tests used:
Assay type in all cases: biochemical
[1] = target: T1, NADH-cytochrome b5 reductase (Homo sapiens, UniProt P00387); test: NADH-cytochrome b5 reductase activity determined as NADH-ferricyanide reductase activity; conditions: 30° C., potassium ferricyanide substrate, decrease of absorbance at 340 nm
T1 construct: from tissue; host or cells: human red blood cells (expired donated blood), crude stroma-free haemolysate (SFHb)
T1 sequence (P00387 1-278 isoform P00387-2): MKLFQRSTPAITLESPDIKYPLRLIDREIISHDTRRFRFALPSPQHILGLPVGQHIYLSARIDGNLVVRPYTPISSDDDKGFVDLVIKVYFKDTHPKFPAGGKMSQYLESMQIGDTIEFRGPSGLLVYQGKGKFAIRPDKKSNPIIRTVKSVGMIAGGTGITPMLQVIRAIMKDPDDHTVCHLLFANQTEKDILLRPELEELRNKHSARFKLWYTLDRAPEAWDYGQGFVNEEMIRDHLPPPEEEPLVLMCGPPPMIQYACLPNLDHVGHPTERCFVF
Experimental: For the enzyme for reducing metHb herein, “substantially free of enzyme activity” means that the enzyme activity is 10%, 5%, 3%, 1%, 0.5%, 0.2%, 0.1%, 0.05% or 0.03% or less, or below detectable limits, of enzyme activity of the enzyme for reducing metHb existing in the Hb solution purified and concentrated from blood derived from humans or domestic animals. The enzyme activity of the enzyme for reducing metHb herein disclosed herein is determined, for example, by the following procedure. Determination of NADH-cytochrome b5 reductase may be carried out according to Beutler, E. (RED CELL METABOLISM: A MANUAL OF BIOCHEMICAL METHOD, Grune &Stratton, Inc., pp. 81-82 (1987)). […]
the enzyme activity is measured by tracing the degree of acceleration by adding sample comprising oxygen. The measurement is carried out by measuring the change (decrease) in absorbance at 340 nm which is the characteristic absorption of the consumed NADH.
The activity of NADH-cytochrome b5 reductase in the above-mentioned purified and concentrated HbCO solution was determined as NADH-ferricyanide reductase activity according to Beutler, E. above. Diluted Hb samples comprising the enzyme to be measured is mixed with a buffer comprising NADH. […] The decrease of difference of absorbance at 340 nm, a characteristic absorption of NADH, per minute was measured to determine activity unit E (IU/gHb). […]

[2] = Catalase (pseudo CAT) activity from change of absorbance at 230 nm of H2O2
Experimental: (§1) The activity of NADH-cytochrome b5 reductase in the above-mentioned purified and concentrated HbCO solution was determined as NADH-ferricyanide reductase activity according to Beutler, E. above. Diluted Hb samples comprising the enzyme to be measured is mixed with a buffer comprising NADH. The mixed solutions were left standing for 10 minutes at 30° C., and then potassium ferricyanide (K3Fe (CN)6), the enzyme substrate, was added to start the enzyme reaction. The decrease of difference of absorbance at 340 nm, a characteristic absorption of NADH, per minute was measured to determine activity unit E (IU/gHb). […] It was reasoned that the heat-labile NADH-cytochrome b5 reductase was eliminated as denatured and insoluble, or denatured and inactivated, due to the introduction of heat treatment during the purifying step. In addition, activities of NADPH metHb reductase and NADPH diaphorase, which correspond to NADPH-flavin reductase are also determined by the above-mentioned methods according to Beutler, E. Diluted blood samples comprising the enzyme to be measured is mixed with a buffer comprising NADPH. The mixed solutions were left standing for 10 minutes at 37° C., and then methylene bleu (MeBl), the enzyme substrate, was added to start the enzyme reaction. The decrease of difference of absorbance at 340 nm, a characteristic absorption of NADPH, per minute was measured to determine activity unit E (IU/gHb). […] Catalase activity of the purified HbCO solution was determined from the change of the absorbance at 230 nm, the absorption wavelength of H2O2, according to Beutler, E. (RED CELL METABOLISM: A MANUAL OF BIOCHEMICAL METHOD, Grune &Stratton, Inc. pp. 105-106 (1987)). […] Pyrogallol was used for measurement of SOD activity (Marklund, S. and Marklund, G., Eur. J. Biochem. 47, 469-474 (1974); Roth, E. F. Jr. and Gilbert, H. S., Anal. Biochem. 137, 50-53(1984)). Pyrogallol is oxidized with oxygen to generate superoxide, and further reacted to generate a yellow dye with absorbance at 420 nm. SOD inhibits this reaction. SOD enzyme activity was determined based on this inhibitory activity. Analyzed specimens were solutions of purified HbO2, HbCO, metHb and solutions thereof further comprising NADH or L-tyrosine In addition, enzyme activity of crude SFHb solution was also determined as a control. […] When NADH and HbO2 were coexisted, however, high CAT and SOD pseudo activities (Table 1). […] The pseudo activity was detected when NADH alone was present, however, the activity was about a tenth ( 1/10) compared with when HbO2 was coexisted. […] There were results showing that this pseudo activity increased as more NADH was added.

NADPH-flavin reductase = target: T2, NADPH-flavin reductase (Homo sapiens, UniProt P30043); test: NADPH metHb reductase / NADPH diaphorase (NADPH-flavin reductase) activity with methylene blue; conditions: 37° C., methylene blue substrate, decrease of absorbance at 340 nm
T2 construct: from tissue; host or cells: human red blood cells (expired donated blood), crude stroma-free haemolysate (SFHb)
T2 sequence (P30043 1-206): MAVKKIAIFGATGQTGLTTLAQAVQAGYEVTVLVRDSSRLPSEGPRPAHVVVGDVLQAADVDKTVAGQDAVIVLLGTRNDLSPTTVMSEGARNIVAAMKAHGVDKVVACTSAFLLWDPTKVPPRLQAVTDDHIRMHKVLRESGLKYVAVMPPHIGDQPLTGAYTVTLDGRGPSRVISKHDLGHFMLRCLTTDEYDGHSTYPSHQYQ
Experimental: Determination of NADPH-flavin reductase activity may be carried out according to Beutler, E. (RED CELL METABOLISM: A MANUAL OF BIOCHEMICAL METHOD, Grune &Stratton, Inc., pp. 79-80 (1987)). The principle of determination of this method is to measure […]. The reaction of reducing methylene bleu (MeBl) to leucomethylene blue (LeukMeBl) as follows:
NADPH+H^++MeBl→NADP^++LeukMeBl
the reaction is known to be slow. The enzyme activity is measured by tracing the degree of acceleration by adding sample comprising oxygen. The measurement is carried out based on the above-mentioned principle by measuring the change (decrease) in absorbance at 340 nm which is the characteristic absorption of the consumed NADPH.
The activity of NADH-cytochrome b5 reductase in the above-mentioned purified and concentrated HbCO solution was determined as NADH-ferricyanide reductase activity according to Beutler, E. above. Diluted Hb samples comprising the enzyme to be measured is mixed with a buffer comprising NADH. […] The decrease of difference of absorbance at 340 nm, a characteristic absorption of NADH, per minute was measured to determine activity unit E (IU/gHb). […] The decrease of difference of absorbance at 340 nm, a characteristic absorption of NADPH, per minute was measured to determine activity unit E (IU/gHb). […]

HbO2 [3] = target: T3, HbO2 (Homo sapiens, UniProt P68871+P69905); test: Oxidant-promoted metHb conversion in non-encapsulated HbO2 solution with NADH (absorbance at 630 nm); conditions: 10 and 40 minutes, vs no NADH
T3 construct: The Hb released by hemolysis was filtered and collected, with the red blood cell membrane components (stroma) separated and removed; from tissue; host or cells: human red blood cells (expired donated blood); heat-treated, nanofiltered, purified and concentrated HbCO, photoconverted to HbO2
T3 sequence (P69905 2-142 limits assumed): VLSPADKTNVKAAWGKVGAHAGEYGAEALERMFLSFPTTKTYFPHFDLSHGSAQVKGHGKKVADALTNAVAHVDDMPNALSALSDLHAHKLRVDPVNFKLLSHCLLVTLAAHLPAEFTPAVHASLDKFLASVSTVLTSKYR
T3 sequence (P68871 2-147 limits assumed): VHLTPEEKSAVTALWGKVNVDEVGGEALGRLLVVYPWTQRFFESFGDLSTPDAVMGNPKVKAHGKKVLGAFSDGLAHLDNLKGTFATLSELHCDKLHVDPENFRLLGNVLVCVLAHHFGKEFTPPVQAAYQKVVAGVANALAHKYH
Experimental: To examine the suppression of Hb oxidation by encapsulation of NADH further in detail, similar experiments were carried out for Hb solution which was not encapsulated.
(1) First, metHb conversion supplemented with NOC7 was studied. To a cuvette with an optical path length of 1 cm, 3 mL of phosphate buffered saline, 30 μL of HbO2 solution (1.5 mM), 30 μL of NADH solution (1.5 mM) and 30 μL of NOC (1.5 mM in PBS) were mixed and the change of absorbance at 630 nm, the absorption wavelength of metHb, at 25° C. was immediately monitored for 10 minutes and for 40 minutes (FIGS. 6A and 6B). In the graphs of FIGS. 6A and 6B, the absorbance at 630 nm was put on the vertical axis and incubation time (second) was put on the horizontal axis. The three lines in FIG. 6A represent a change over time of metHb when the solution comprising HbO2 and NADH was supplemented with NOC7 (HbO2+NADH+NOC7), a change over time of metHb when the solution comprising HbO2 but not NADH was supplemented with NOC7 (HbO2+NOC7) and a change over time of metHb when the solution comprising HbO2 was neither supplemented with NADH nor NOC7 (HbO2+water). […] To a cuvette with an optical path length of 1 cm, 3 mL of PBS, 30 μL of HbO2 solution (1.5 mM), 30 μL of NADH solution (1.5 mM) and 30 μL of H2O2 (1.5 mM) were mixed and the change of absorbance at 630 nm at 25° C. was immediately monitored for 10 minutes and for 40 minutes (FIGS. 7A and 7B). In the graphs of FIGS. 7A and 7B, the absorbance at 630 nm was put on the vertical axis and incubation time (second) was put on the horizontal axis. […] To a cuvette with an optical path length of 1 cm, 3 mL of PBS, 30 μL of HbO2 solution (1.5 mM), 30 μL of NADH solution (1.5 mM) and 30 μL of NaNO2 (1.5 mM in PBS) were mixed and the change of absorbance at 630 nm at 25° C. was immediately monitored for 10 minutes and for 40 minutes (FIGS. 8A and […]). In the graphs of FIGS. 8A and […], the absorbance at 630 nm was put on the vertical axis and incubation time (second) was put on the horizontal axis. […]

HbO2 [4] = target: T3, HbO2; test: Screening of suppressing effect of compounds against autoxidation of HbO2; conditions: HbO2 10 g/dL, antioxidant 1 g/dL, 37° C., 24 hours
Experimental: NADH was purchased from Oriental Yeast Co. Ltd., and all the rest were purchased from Sigma-Aldrich (St. Louis, Mo., USA). HbCO solution was transferred to an eggplant flask and irradiated with visible light (halogen lamp; LPL Videeoligtvl-302, LPLCO. Ltd., Tokyo, Japan) under oxygen gas flow to convert to HbO2. […] The conversion ratios to metHb were determined from the visible absorption spectrum. The measurement of spectrum between 300 nm to 500 nm was conducted using a spectrophotometer (V-660, Japan Spectroscopic Company (JASCO)) mounted with a device to control the light scattering to the minimum (an integrating sphere). The atmosphere inside of a Thunberg cuvette was replaced with nitrogen gas and the conversion ratios to metHb were determined from the ratios of absorbance at 405 nm (λmax of metHb) and 430 nm (λmax of deoxyHb).

[5] = SOD (pseudo SOD) activity, pyrogallol method; conditions: ratio
Experimental: as §1

| Compound | NADH-cytochrome b5 reductase activity (activity unit E) [1] | NADH-cytochrome b5 reductase activity (activity unit E) ([1]; listed as Hb solution) | Catalase activity ([2]; change of absorbance at 230 nm of H2O2, Example 1) | NADPH metHb reductase / NADPH diaphorase (NADPH-flavin reductase) activity (activity unit E) (NADPH-flavin reductase) | NADPH metHb reductase / NADPH diaphorase (NADPH-flavin reductase) activity (activity unit E) (NADPH-flavin reductase; listed as Hb solution) | increase of metHb-specific absorbance at 630 nm (HbO2 [3]; HbO2 solution + H2O2, 25° C.) | increase of metHb-specific absorbance at 630 nm (HbO2 [3]; HbO2 solution + NOC7, 25° C.) | increase of metHb-specific absorbance at 630 nm (HbO2 [3]; HbO2 solution + NaNO2, 25° C.) | CAT pseudo activity of NADH alone compared with when HbO2 was coexisted ([2]; ratio) | metHb conversion (%) (HbO2 [4]) | SOD pseudo activity of NADH alone compared with when HbO2 was coexisted [5] |
| --- | --- | --- | --- | --- | --- | --- | --- | --- | --- | --- | --- |
| purified and concentrated Hb: human Hb purified with heat treatment (60° C., 12 hours) and nanofiltration, concentrated to 40 to 42 g/dL | did not detect any activity | does not show enzymatic activities | ≤ 0.03×10^4 IU/gHb | below 0.01 IU/gHb | does not show enzymatic activities |  |  |  |  |  |  |
| NC(=O)C1=CN([C@@H]2O[C@H](COP(=O)(O)OP(=O)(O)OC[C@H]3O[C@@H](n4cnc5c(N)ncnc54)[C@H](O)[C@@H]3O)[C@@H](O)[C@H]2O)C=CC1 [NADH, nicotinamide adenine dinucleotide (NADH)] |  |  |  |  |  | remarkably suppressed | remarkably suppressed | remarkably suppressed | 1/10 | 17 | 1/10 |
